Data: patent US11453671B2, “Pyrazolopyrimidine inhibitors of JAK kinases and uses thereof” (Genentech, Inc., priority 2020, dated 2022)

What was measured:
[1] = tested on: JAK1 pathway: P-STAT6 in TF-1 human erythroleukemia cells + IL-13; assay: P-STAT6 TF-1+Interleukin-13 (IL-13) assay; type: cell-based; conditions: Homo sapiens, TF-1, TF-1 cells, IL-13 stimulation; read-out: Cellular JAK1 PSTAT6 TF-1 + IL13 IC50
Procedure: (§1) TF-1 human erythroleukemia cells (ATCC®; Manassas, Va.; Catalog No. CRL-2003™) were grown in Roswell Park Memorial Institute (RPMI) medium supplemented with 10% heat-inactivated fetal bovine serum (FBS), 2 ng/mL granulocyte-macrophage colony-stimulating factor, 1×non-essential amino acids (NEAA), and 1 mM sodium pyruvate. The day before the assay, the cultures were transferred to Opti-MEM™, 1×NEAA, 1 mM sodium pyruvate, and 0.5% charcoal-stripped FBS (starve medium). Inhibitor stock solutions (5 mM in DMSO) were serially diluted 1:2 in DMSO to generate a 10-point concentration titration (at 500×test concentration), which was further diluted by a 50-fold dilution in Assay Medium (RPMI containing 1×NEAA and 1 mM sodium pyruvate) to generate a 10×concentration titration (in 2% DMSO). The cells (300,000 cells/well in 35 μL of Assay Medium) were seeded in 384-well Greiner plates. Diluted inhibitor at 10×concentration (5 μL) was added to the cells and the plates were incubated for 30 minutes at 37° C. in a humidified incubator. Cells were stimulated with the human recombinant cytokine at the respective EC90 concentrations, as previously determined for each individual lot. For the phosphorylated signal transducer and activator of transcription 6 (P-STAT6) TF-1+Interleukin-13 (IL-13) assay, 10 μL of 250 ng/mL IL-13 (R&D Systems; Minneapolis, Minn.) was added to the cells, which were then incubated for 10 minutes at 37° C. For the P-STAT5 TF-1+Erythropoietin (EPO) assay, 10 μL of 110 IU/mL EPO (Gibco Life Technologies, Catalog No. PHC2054) was added to the cells, which were then incubated for 30 min at 37° C. For both assays, the incubation was followed by addition to the cells of 5 μL of ice-cold 10× cell lysis buffer (Cell Signaling Technologies; Danvers, Mass.; Catalog No. 9803S) containing 1 mM phenylmethylsulfonyl fluoride (PMSF). Assay plates were frozen at −80° C. for a minimum of 1 horn. In the IL-13 assay, P-STAT6 was measured by coating goat anti-rabbit (GAR) plates (Meso Scale Discovery [MSD]; Rockville, Md.; Catalog No. MSD L21RA-1) with rabbit anti-human total STAT6 antibody (Cell Signaling Technologies; Catalog No. 9362S), incubating the cell lysates in the coated plates overnight at 4° C., and then detecting with mouse anti-P-STAT6 (Tyr641) Clone 16E12 antibody (MilliporeSigma; Burlington, Mass.; Catalog No. 05-590, custom labeled by MSD with SULFO-tag) using standard MSD plate processing, washing, and detection protocols. In the EPO assay, P-STAT5 was detected using the phospho-STAT5a,b Whole Cell Lysate Kit (MSD; Catalog No. K150IGD-1). The electrochemiluminescence (ECL) signal of wells was read on the MESO SECTOR S600 (MSD) reader.

[2] = tested on: JAK2 pathway: P-STAT5 in TF-1 human erythroleukemia cells + EPO; assay: P-STAT5 TF-1+Erythropoietin (EPO) assay; type: cell-based; conditions: Homo sapiens, TF-1, TF-1 cells, EPO stimulation; read-out: Cellular JAK2 PSTAT5 TF-l + EPO IC50
Procedure: as §1

[3] = Cell cytotoxicity assay HEK-293T (CellTiter-Glo, 72 hours); type: cell-based; conditions: human, HEK-293T cells, read-out: Cytotox K-293 EC50
From the text: (§2) Cytotoxicity assays. Hepatocyte toxicity, general cytotoxicity or cytotoxicity of unknown mechanism is an undesirable feature for a potential drug, including inhaled drugs. It may be of benefit for an inhaled JAK1 or JAK1/JAK2 inhibitor to have low intrinsic cytotoxicity against various cell types. Typical cell types used to assess cytotoxicity include both primary cells such as human hepatocytes, and proliferating established cell lines such as Jurkat and HEK-293. […] Methods of measuring cytotoxicity are known in the art. In some embodiments, compounds described herein were tested as follows:
(§3) (a) Jurkat and HEK293T cells were maintained at a sub confluent density in T175 flasks. Cells were plated at 450 cells/45 μl medium in Greiner 384 well black/clear tissue culture treated plates. (Greiner Catalog #781091). After dispensing cells, plates were equilibrated at room temperature for 30 minutes. After 30 minutes at room temperature, cells were incubated overnight at 37° C. in a CO2 and humidity controlled incubator. The following day, cells were treated with compounds diluted in 100% DMSO (final DMSO concentration on cells=0.5%) with a 10 point dose-response curve with a top concentration of 50 μM. Cells and compounds were then incubated for 72 hours overnight at 37° C. in a CO2 and humidity controlled incubator. After 72 hours of incubation, viability was measured using CellTiterGlo® (Promega Catalog #G7572) to all wells. After incubation at room temperature for 20 minutes, plates were read on EnVision™ (Perkin Elmer Life Sciences) using luminescence mode;
(§4) A549 (ATCC® CCL-185™), Jurkat clone E6-1 (ATCC® TIB-152™) and HEK-293T (ATCC® CRL-1573™) cells maintained at a sub-confluent density in T175 flasks were used. Cells in exponential growth phase were plated (450 cells in 45 μL of medium) in Greiner 384-well black/clear tissue culture treated plates (Greiner Catalog No. 781091). After dispensing cells, plates were allowed to equilibrate at room temperature for 30 minutes, after which time the cell plates were placed overnight in a 37° C. CO2 and humidity-controlled incubator. The following day, cells were treated with test agent diluted in 100% DMSO (0.5% final DMSO concentration on cells) with a 10-point titration and a top concentration of 50 μM. Cells and compounds were then incubated for 72 hours in a 37° C. CO2 and humidity-controlled incubator, after which time cell viability was measured by adding CellTiter-Glo® (Promega G7572) reagent to all wells. Plates were incubated at room temperature for 20 minutes and then the well luminescence was read on an EnVision plate reader (Perkin Elmer Life Sciences).

[4] = Cell cytotoxicity assay Jurkat (CellTiter-Glo, 72 hours); type: cell-based; conditions: human, Jurkat clone E6-1 cells, read-out: Cytotox Jurkat EC50
From the text: as §2, §3, §4

[5] = Cell cytotoxicity assay A549 (CellTiter-Glo, 72 hours); type: cell-based; conditions: human, A549 cells, read-out: Cytotox A549 EC50
Procedure: as §4

[6] = target: Recombinant human JAK2 kinase domain protein (Residues 812-1132) (Homo sapiens, UniProt O60674); assay: JAK2 biochemical assay (microfluidic mobility shift, peptide phosphorylation); conditions: Enzyme JAK2 Ki (nM), 25 μM ATP, 0.2 nM total JAK2
Sequence of Recombinant human JAK2 kinase domain protein (Residues 812-1132) (O60674 812-1132): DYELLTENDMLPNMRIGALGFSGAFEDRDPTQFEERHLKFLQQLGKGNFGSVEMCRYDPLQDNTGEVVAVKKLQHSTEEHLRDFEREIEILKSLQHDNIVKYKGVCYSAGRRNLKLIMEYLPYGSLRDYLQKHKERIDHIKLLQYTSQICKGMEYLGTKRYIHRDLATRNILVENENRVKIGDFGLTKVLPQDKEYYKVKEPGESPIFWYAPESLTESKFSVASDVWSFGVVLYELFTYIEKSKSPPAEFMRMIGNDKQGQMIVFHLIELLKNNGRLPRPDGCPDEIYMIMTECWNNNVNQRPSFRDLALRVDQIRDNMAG

[7] = Table 3, 72 hours, top concentration of 50 μM
[8] = Table 4, methyl-desmethyl analog pairs

Compound	IC50 [1] [µM]	IC50 [2] [µM]	Ki [6] [nM]	EC50 at 72 h [3, 7] [µM]	EC50 at 72 h [4, 7] [µM]	EC50 at 72 h [5, 7] [µM]	EC50 at 72 h [3, 8] [µM]	EC50 at 72 h [4, 8] [µM]	EC50 at 72 h [5, 8] [µM]
C[C@H](Cn1cc(S(=O)(=O)c2ccc(OC(F)F)c(-c3nn(C)cc3NC(=O)c3cnn4cccnc34)c2)cn1)N(C)C [Example 59, N-[3-[2-(difluoromethoxy)-5-[1-[(2R)-2-(dimethylamino)propyl]pyrazol-4-yl]sulfonyl-phenyl]-1-methyl-pyrazol-4-yl]pyrazolo[1,5-a]pyrimidine-3-carboxamide]	0.013	0.028	0.54	14	30	43			
Cn1cc(NC(=O)c2cnn3cccnc23)c(-c2cc(S(C)(=O)=O)ccc2OC(F)F)n1 [Example 17, N-[3-[2-(difluoromethoxy)-5-methylsulfonyl-phenyl]-1-methyl-pyrazol-4-yl]pyrazolo[1,5-a]pyrimidine-3-carboxamide]			0.1	7.3	11	8.7	7.3	11	8.7
CNS(=O)(=O)c1ccc(OC(F)F)c(-c2nn(C)cc2NC(=O)c2cnn3cccnc23)c1 [Example 26, N-[3-[2-(difluoromethoxy)-5-(methylsulfamoyl)phenyl]-1-methyl-pyrazol-4-yl]pyrazolo[1,5-a]pyrimidine-3-carboxamide]			0.097	5.8	12	11			
CN(CCO)S(=O)(=O)c1ccc(OC(F)F)c(-c2nn(C)cc2NC(=O)c2cnn3cccnc23)c1 [Example 73, N-(3-(2-(difluoromethoxy)-5-(N-(2-hydroxyethyl)-N-methylsulfamoyl)phenyl)-1-methyl-1H-pyrazol-4-yl)pyrazolo[1,5-a]pyrimidine-3-carboxamide]			0.21	2.9	8.4	≥ 50			
COCCS(=O)(=O)c1ccc(OC(F)F)c(-c2nn(C)cc2NC(=O)c2cnn3cccnc23)c1 [Example 14, N-[3-[2-(difluoromethoxy)-5-(2-methoxyethylsulfonyl)phenyl]-1-methyl-pyrazol-4-yl]pyrazolo[1,5-a]pyrimidine-3-carboxamide]				32	≥ 50	≥ 50			

More lines, in order of falling Ki [6], values ahead:

IC50 [1] [µM]	IC50 [2] [µM]	Ki [6] [nM]	Compound	EC50 at 72 h [3, 7] [µM]	EC50 at 72 h [4, 7] [µM]	EC50 at 72 h [5, 7] [µM]	EC50 at 72 h [3, 8] [µM]	EC50 at 72 h [4, 8] [µM]	EC50 at 72 h [5, 8] [µM]
		0.76	CN1CCCC1CCn1cc(S(=O)(=O)c2ccc(OC(F)F)c(-c3nn(C)cc3NC(=O)c3cnn4cccnc34)c2)cn1 (stereo in doubt) [Example 56, N-[3-[2-(difluoromethoxy)-5-[1-[2-[(2R)-1-methylpyrrolidin-2-yl]ethyl]pyrazol-4-yl]sulfonyl-phenyl]-1-methyl-pyrazol-4-yl]pyrazolo[1,5-a]pyrimidine-3-carboxamide]	10	24	≥ 50			
		0.28	Cn1cc(NC(=O)c2cnn3cccnc23)c(-c2cc(S(=O)(=O)CCCO)ccc2OC(F)F)n1 [Example 63, N-[3-[2-(difluoromethoxy)-5-(3-hydroxypropylsulfonyl)phenyl]-1-methyl-pyrazol-4-yl]pyrazolo[1,5-a]pyrimidine-3-carboxamide]	20	35	≥ 50			
		0.19	Cn1cc(NC(=O)c2cnn3cccnc23)c(-c2cc(S(=O)(=O)c3ccncc3)ccc2OC(F)F)n1 [Example 16, N-[3-[2-(difluoromethoxy)-5-(4-pyridylsulfonyl)phenyl]-1-methyl-pyrazol-4-yl]pyrazolo[1,5-a]pyrimidine-3-carboxamide]	7.6	6.2	7.4			
		0.16	C[C@H](O)CS(=O)(=O)c1ccc(OC(F)F)c(-c2nn(C)cc2NC(=O)c2cnn3cccnc23)c1 (stereo in doubt) [Example 15, N-[3-[2-(difluoromethoxy)-5-[rac-(2S)-2-hydroxypropyl]sulfonyl-phenyl]-1-methyl-pyrazol-4-yl]pyrazolo[1,5-a]pyrimidine-3-carboxamide]	25	35	25			
		0.16	Cn1cc(NC(=O)c2cnn3cccnc23)c(-c2cc(S(=O)(=O)N3CCC3)ccc2OC(F)F)n1 [Example 21, N-[3-[5-(azetidin-1-ylsulfonyl)-2-(difluoromethoxy)phenyl]-1-methyl-pyrazol-4-yl]pyrazolo[1,5-a]pyrimidine-3-carboxamide]	4.8	11	7.5			
0.0087	0.0091	0.14	COc1cccc(S(=O)(=O)c2ccc(OC(F)F)c(-c3nn(C)cc3NC(=O)c3cnn4cccnc34)c2)c1 [Example 12, N-[3-[2-(difluoromethoxy)-5-(3-methoxyphenyl)sulfonyl-phenyl]-1-methyl-pyrazol-4-yl]pyrazolo[1,5-a]pyrimidine-3-carboxamide]	36	≥ 50	≥ 50			
		0.14	CN(C)S(=O)(=O)c1ccc(OC(F)F)c(-c2nn(C)cc2NC(=O)c2cnn3cccnc23)c1 [Example 30, N-[3-[2-(difluoromethoxy)-5-(dimethylsulfamoyl)phenyl]-1-methyl-pyrazol-4-yl]pyrazolo[1,5-a]pyrimidine-3-carboxamide]	2.4	9.2	6.1			
